“And” between values parts separate entries of the source, which are not always exact repeats. Equal entries are not always repeated. Where two headings read alike, the source gives them in different places.
Experiments:
Ba/F3-MER cells = test: Cell viability assay (MTS); type: cell-based; conditions: 72 h
[1] = In vivo pharmacokinetics study; conditions: mice; for clearance at 24 h: read-out: iv CL; for Vd at 24 h: read-out: iv Vss; for iv DNAUC(0–inf) / po DNAUC(0–inf) / po DNCmax: dose-normalized
Method: The animal studies were performed according to NHRI institutional animal care and committee-approved procedures. Male ICR mice (25–35 g) were obtained from BioLASCO (Taiwan Co., Ltd., Ilan, Taiwan). […] All samples were analyzed for the parent drug by LC-MS/MS. Plasma concentration data were analyzed with a noncompartmental method.

[2] = In vitro microsomal stability assay; type: in vitro ADME; conditions: 1 μM, mouse liver microsomes, percent remaining at 30 min
Method: All incubations were initiated with the addition of NADPH-generating system at 37 °C for 30 min. At 0 and the end of incubation, 100 μL of aliquots were taken from the incubation mixture and placed into centrifuge tubes containing 100 μL of ice-cold acetonitrile to terminate the metabolic reaction. The samples were vortexed and centrifuged, and then, the supernatant injected onto LC/MS. Percent of remaining of each compound was calculated by comparing peak areas at 30 min to that at the initiation of incubation.

MER = biological target: T1, MER (Homo sapiens, UniProt Q12866); test: MER enzyme inhibition assay (in-house Kinase-Glo); type: biochemical; conditions: for inhibition at 1 µM: read-out: MER inh. @ 1 μM
T1 construct: A purified kinase (MER or AXL) was incubated with a compound or DMSO
T1 sequence (Q12866 21-999): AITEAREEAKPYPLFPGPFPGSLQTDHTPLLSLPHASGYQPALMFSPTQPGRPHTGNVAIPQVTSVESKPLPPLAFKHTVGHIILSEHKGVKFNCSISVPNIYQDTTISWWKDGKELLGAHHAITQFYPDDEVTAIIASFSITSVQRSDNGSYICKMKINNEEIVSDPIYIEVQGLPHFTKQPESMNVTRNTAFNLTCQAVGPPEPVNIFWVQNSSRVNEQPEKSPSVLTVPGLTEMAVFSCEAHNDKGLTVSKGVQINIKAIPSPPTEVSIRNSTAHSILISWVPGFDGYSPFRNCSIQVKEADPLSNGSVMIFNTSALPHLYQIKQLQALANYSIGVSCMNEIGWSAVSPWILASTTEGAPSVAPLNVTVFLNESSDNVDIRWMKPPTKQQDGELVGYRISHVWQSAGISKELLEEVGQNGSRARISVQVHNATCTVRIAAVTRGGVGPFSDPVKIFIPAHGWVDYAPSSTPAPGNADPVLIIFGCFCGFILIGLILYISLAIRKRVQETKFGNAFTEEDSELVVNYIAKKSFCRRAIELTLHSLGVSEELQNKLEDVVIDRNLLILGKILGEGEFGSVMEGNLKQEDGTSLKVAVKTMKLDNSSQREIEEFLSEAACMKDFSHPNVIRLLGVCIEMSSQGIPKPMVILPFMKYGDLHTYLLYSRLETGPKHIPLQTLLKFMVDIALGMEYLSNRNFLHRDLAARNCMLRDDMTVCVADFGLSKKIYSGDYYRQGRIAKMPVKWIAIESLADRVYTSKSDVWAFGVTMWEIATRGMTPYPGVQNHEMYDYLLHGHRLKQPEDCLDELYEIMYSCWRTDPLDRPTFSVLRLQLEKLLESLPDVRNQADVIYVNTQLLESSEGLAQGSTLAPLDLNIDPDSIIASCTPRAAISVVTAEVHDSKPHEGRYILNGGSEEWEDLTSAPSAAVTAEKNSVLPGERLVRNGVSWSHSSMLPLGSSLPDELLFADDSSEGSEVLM

AXL = biological target: T2, AXL (Homo sapiens, UniProt P30530); test: AXL enzyme inhibition assay (ADP-Glo); type: biochemical; conditions: for inhibition at 1 µM: read-out: AXL inh. @ 1 μM
T2 construct: A purified kinase (MER or AXL) was incubated with a compound or DMSO
T2 sequence (P30530 26-894): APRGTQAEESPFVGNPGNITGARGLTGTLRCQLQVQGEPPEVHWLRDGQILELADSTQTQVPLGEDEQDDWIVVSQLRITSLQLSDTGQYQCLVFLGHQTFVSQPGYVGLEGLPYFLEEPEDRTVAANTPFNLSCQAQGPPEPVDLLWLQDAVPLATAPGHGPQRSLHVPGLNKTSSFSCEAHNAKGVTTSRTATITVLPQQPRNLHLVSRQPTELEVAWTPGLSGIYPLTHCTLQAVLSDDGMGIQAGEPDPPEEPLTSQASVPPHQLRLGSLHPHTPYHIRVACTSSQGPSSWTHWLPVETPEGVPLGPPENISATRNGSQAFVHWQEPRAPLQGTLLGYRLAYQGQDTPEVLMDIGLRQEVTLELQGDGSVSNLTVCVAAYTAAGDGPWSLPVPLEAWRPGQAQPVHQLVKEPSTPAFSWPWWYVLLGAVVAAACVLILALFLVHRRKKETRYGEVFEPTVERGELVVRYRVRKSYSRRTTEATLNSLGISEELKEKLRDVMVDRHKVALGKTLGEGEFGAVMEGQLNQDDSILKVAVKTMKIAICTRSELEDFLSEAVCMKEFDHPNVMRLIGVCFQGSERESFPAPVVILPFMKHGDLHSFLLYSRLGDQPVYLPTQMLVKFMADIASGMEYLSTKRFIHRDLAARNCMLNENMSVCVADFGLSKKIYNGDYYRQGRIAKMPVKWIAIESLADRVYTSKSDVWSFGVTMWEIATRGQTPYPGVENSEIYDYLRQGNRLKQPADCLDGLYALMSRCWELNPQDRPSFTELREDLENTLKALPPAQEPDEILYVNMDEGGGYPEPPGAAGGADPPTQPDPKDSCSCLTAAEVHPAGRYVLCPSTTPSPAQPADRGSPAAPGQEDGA

EGFR^WT = EGFR^WT (Homo sapiens, UniProt P00533); test: EGFR^WT in-house Kinase-Glo assay; type: biochemical; conditions: for inhibition at 1 µM: read-out: EGFR^WT inh. @ 1 μM
EGFR^DM (T790M/L858R) = EGFR^DM (T790M/L858R) (Homo sapiens, UniProt P00533, L858R/T790M); test: EGFR^DM in-house Kinase-Glo assay; type: biochemical
[3] = male, ICR, mouse, plasma, iv 2 mg/kg, po 10 mg/kg
[4] = male, ICR, mouse, plasma, iv 2 mg/kg
[5] = male, ICR, mouse, plasma, iv 2 mg/kg, read-out: iv T1/2 (converted)
[6] = male, ICR, mouse, plasma, po 10 mg/kg
[7] = male, ICR, mouse, plasma, po 10 mg/kg, read-out: po T1/2 (converted)

| Compound | IC50 (Ba/F3-MER cells) | bioavailability at 24 h [1, 3] [%] | clearance at 24 h [1, 4] [mL/min/kg] | half-life at 24 h [1, 5] [h] | Vd at 24 h [1, 4] [L/kg] | Tmax at 24 h [1, 6] [h] | iv DNAUC(0–inf) ([1]; iv 2 mg/kg) | po DNAUC(0–inf) ([1]; po 10 mg/kg) [ng·h/mL] | po DNCmax ([1]; po 10 mg/kg) [ng/mL] | Microsomal stability @ 30 min [2] [%] | MER inh. @ 1 μM (MER) [%] | AXL inh. @ 1 μM (AXL) [%] | EGFR^WT inh. @ 1 μM (EGFR^WT) [%] | EGFR^DM inh. @ 1 μM (EGFR^DM (T790M/L858R)) [%] | further results |
| --- | --- | --- | --- | --- | --- | --- | --- | --- | --- | --- | --- | --- | --- | --- | --- |
| CNc1cccc(-c2c(-c3cnn(C)c3)oc3ncnc(Oc4ccc(NC(=O)c5cccn(-c6ccc(F)cc6)c5=O)cc4)c23)c1 [Compound 29, 1-(4-Fluorophenyl)-N-[4-({5-[3-(methylamino)phenyl]-6-(1-methyl-1H-pyrazol-4-yl)furo[2,3-d]pyrimidin-4-yl}oxy)phenyl]-2-oxo-1,2-dihydropyridine-3-carboxamide] | 1.2 nM | 0.5 | 5.3 | 8.5 | 1.3 | 24 | 3,330.5 ng × hr/mL | 15.3 | 1.4 | 100 | – | – | – | – | – |
| CN1CCN(c2cccc(-c3c(-c4cnn(C)c4)oc4ncnc(Oc5ccc(NC(=O)c6cccn(-c7ccc(F)cc7)c6=O)cc5)c34)c2)CC1 [Compound 35, 1-(4-Fluorophenyl)-N-[4-({5-[3-(4-methylpiperazin-1-yl)phenyl]-6-(1-methyl-1H-pyrazol-4-yl)furo[2,3-d]pyrimidin-4-yl}oxy)phenyl]-2-oxo-1,2-dihydropyridine-3-carboxamide] | 7.5 nM | 14.8 | 87.1 | 2.4 | 7.4 | 2.7 | 221.0 ng·h/mL | 32.8 | 4.5 | 59 | – | – | – | – | IC50 (MER): 14.2 nM; IC50 (AXL): 11.1 nM; half-life at 24 h [1, 7]: 4.3 h |
| CC(=O)Nc1cccc(-c2c(-c3cnn(C)c3)oc3ncnc(Oc4ccc(NC(=O)c5cccn(-c6ccc(F)cc6)c5=O)cc4)c23)c1 [Compound 28, N-[4-({5-[3-(Acetylamino)phenyl]-6-(1-methyl-1H-pyrazol-4-yl)furo[2,3-d]pyrimidin-4-yl}oxy)phenyl]-1-(4-fluorophenyl)-2-oxo-1,2-dihydropyridine-3-carboxamide] | 1 nM | – | 20.5 | 12.7 | 10.5 | – | 766.5 ng·h/mL | – | – | 91 | – | – | – | – | – |
| N^1-(4-{[5-(3-Aminophenyl)-6-phenylfuro[2,3-d]pyrimidin-4-yl]amino}phenyl)-N^1-(4-fluorophenyl)cyclopropane-1,1-dicarboxamide [Compound 15] | 713 nM | – | – | – | – | – | – | – | – | – | 19 | 92 | 1 | −4 | – |
| Nc1cccc(-c2c(-c3ccccc3)oc3ncnc(Oc4ccc(NC(=O)c5cccn(-c6ccc(F)cc6)c5=O)cc4)c23)c1 [Compound 17, N-(4-{[5-(3-Aminophenyl)-6-phenylfuro[5,4-d]pyrimidin-4-yl]oxy}phenyl)-1-(4-fluorophenyl)-2-oxo-1,2-dihydropyridine-3-carboxamide] | 8.4 nM and 8.2 nM | – | – | – | – | – | – | – | – | – | – | – | – | – | inhibition at 1 µM (MER): 70%; inhibition at 1 µM (AXL): 100%; inhibition at 1 µM (EGFR^WT): 1%; inhibition at 1 µM (EGFR^DM (T790M/L858R); read-out: EGFR^DM inh. @ 1 μM): -1% |
| N^1-(4-{[5-(3-Aminophenyl)-6-phenylfuro[2,3-d]pyrimidin-4-yl]oxy}phenyl)-N^1-(4-fluorophenyl)cyclopropane-1,1-dicarboxamide [Compound 12] | 73.6 nM | – | – | – | – | – | – | – | – | – | 71 | 100 | 0 | −9 | – |
| Cn1cc(-c2oc3ncnc(Oc4ccc(NC(=O)c5cccn(-c6ccc(F)cc6)c5=O)cc4)c3c2-c2cccc(CN)c2)cn1 [Compound 31, N-[4-({5-[3-(Aminomethyl)phenyl]-6-(1-methyl-1H-pyrazol-4-yl)furo[2,3-d]pyrimidin-4-yl}oxy)phenyl]-1-(4-fluorophenyl)-2-oxo-1,2-dihydropyridine-3-carboxamide] | 7.6 nM | – | 35.1 | 6.3 | 9.9 | – | 483.0 ng·h/mL | – | – | 77 | – | – | – | – | – |

The next lines start with results.

| IC50 (Ba/F3-MER cells) | bioavailability at 24 h [1, 3] [%] | clearance at 24 h [1, 4] [mL/min/kg] | half-life at 24 h [1, 5] [h] | Vd at 24 h [1, 4] [L/kg] | Tmax at 24 h [1, 6] [h] | iv DNAUC(0–inf) ([1]; iv 2 mg/kg) | po DNAUC(0–inf) ([1]; po 10 mg/kg) [ng·h/mL] | po DNCmax ([1]; po 10 mg/kg) [ng/mL] | Microsomal stability @ 30 min [2] [%] | Compound | MER inh. @ 1 μM (MER) [%] | AXL inh. @ 1 μM (AXL) [%] | EGFR^WT inh. @ 1 μM (EGFR^WT) [%] | EGFR^DM inh. @ 1 μM (EGFR^DM (T790M/L858R)) [%] | further results |
| --- | --- | --- | --- | --- | --- | --- | --- | --- | --- | --- | --- | --- | --- | --- | --- |
| 658 nM | – | – | – | – | – | – | – | – | – | N^1-{4-[(5,6-Diphenylfuro[2,3-d]pyrimidin-4-yl)oxy]phenyl}-N^1-(4-fluorophenyl)cyclopropane-1,1-dicarboxamide [Compound 13] | 41 | 98 | 3 | 2 | – |
| 618 nM | – | – | – | – | – | – | – | – | – | C=CC(=O)Nc1cccc(-c2c(-c3ccccc3)oc3ncnc(Oc4ccc(NC(=O)C5(C(=O)Nc6ccc(F)cc6)CC5)cc4)c23)c1 [Compound 11] | – | – | – | – | inhibition at 1 µM (MER): 14%; inhibition at 1 µM (AXL): 96%; inhibition at 1 µM (EGFR^WT): 40%; IC50 (EGFR^DM (T790M/L858R); cell marked b = IC50 value): 42 nM |
| – | 26.2 | 84 | 11.2 | 8 | 2 | 208.0 ng·h/mL | 54.4 | 5.7 | 67 | CN(C)Cc1ccc(-c2c(-c3cnn(C)c3)oc3ncnc(Oc4ccc(NC(=O)c5cccn(-c6ccc(F)cc6)c5=O)cc4)c23)cc1 [Compound 39, N-{4-[(5-{4-[(Dimethylamino)methyl]phenyl}-6-(1-methyl-1H-pyrazol-4-yl)furo[2,3-d]pyrimidin-4-yl)oxy]phenyl}-1-(4-fluorophenyl)-2-oxo-1,2-dihydropyridine-3-carboxamide] | – | – | – | – | bioavailability [1, 3]: > 20%; half-life at 24 h [1, 7]: 2.4 h |
